{"source": "patent US20240092741A1", "about": "“COMPOSITION FOR PREVENTION OR TREATMENT OF NEUROFIBROMATOSIS TYPE 2 SYNDROME” (PRG S&TECH INC., priority 2021, published 2024)", "type_in_all_cases": "cell-based, human", "key": {"HEI-193 cells [1]": {"system": "HEI-193 cells", "assay": "Western blotting of marker proteins in HEI-193 cells", "details": "HEI-193 cells", "procedure": "(§1) Cells were harvested and lysed using RIPA buffer [50 mM Tris-Cl, pH 7.5, 150 mM NaCl, 1% NP-40, 0.1% SDS, and 10% sodium deoxycholate] to examine cellular signaling. Protein concentrations in samples were measured using Bio-Rad (Hercules, CA, USA) protein assay kits and BSA standards. The samples (20 μg protein per lane) were separated by sodium dodecyl sulfate-polyacrylamide gel electrophoresis (SDS-PAGE), transferred to Immobilon-P^SQ transfer membranes (Millipore Corp., MA, USA), which were then cultured with 3% skim milk-containing TBS-T buffer (Tris-HCl-based buffer containing 20 mM Tris pH 7.6, 150 mM NaCl, and 0.05% Tween 20) for 1 hour at room temperature and then reacted with primary antibody in TBS-T overnight at 4° C. The membranes were then washed and reacted with secondary horseradish peroxidase (HRP)-conjugated antibodies [goat anti-mouse, goat anti-rabbit, and mouse anti-goat antibodies (Pierce, Thermo Fisher Scientific, Inc., Rockford, IL, USA)] in TBS-T at room temperature for 2 hours. The blots were detected using an HRP-conjugated secondary antibody using ECL kit (Intron, Seoul, Korea)."}, "HEI-193 cells [2]": {"system": "HEI-193 cells", "assay": "RT-PCR gene expression in HEI-193 cells", "procedure": "For RT-PCR, total cellular RNA was extracted using an RNA extraction kit (Qiagen). Gene expression analysis was performed using cDNA synthesized from total RNA with MMLV RT (Invitrogen, Carlsbad, USA) and random hexamer. PCR from genomic DNA was performed using DiaStar Taq DNA polymerase (SolGent, Daejeon, Korea), and gene expression analysis was performed using the following specific primers: […]"}, "TGF-β signaling [3]": {"system": "TGF-β signaling", "assay": "Smad2/3 phosphorylation after TGF-β1 in HEI-193 cells", "details": "10 μM, TGF-β1 1 ng/ml (FIGS. 16A, 16B)", "procedure": "as §1"}, "HEI-193 cells [4]": {"system": "HEI-193 cells", "assay": "Cell-cycle analysis by FACS in HEI-193 cells", "details": "10 μM, 4 days (FIGS. 12A, 13A)", "procedure": "[…] After 4 days, the cells were fixed with 70% ethanol and labeled with propidium iodine. These samples were analyzed by FACS for cell-cycle analysis. After 7 days of treatment with DMSO (control group), PRG-N-01, or TEW7197 at the indicated concentration, the cells were fixed with 4% paraformaldehyde and then stained with indicated antibody. A minimum of 10,000 cells were analyzed using an Attune NxT Flow cytometer (Thermo Fisher Scientific, Inc., Rockford, IL, USA)."}, "SOX2": {"system": "SOX2", "assay": "SOX2 localization by IF and cell fractionation in HEI-193 cells", "details": "2 μM, 24 h, IF and cell fractionation (FIGS. 15C, 15D)", "procedure": "(§2) Cells were seeded on cover glass, washed with PBS, fixed with 4% paraformaldehyde (PFA) for 30 minutes at room temperature, and then permeabilized with 0.2% Triton X-100 at room temperature for 5 minutes. After treatment with blocking buffer [3% goat serum diluted in PBS] for 1 hour, cells were reacted with the specified antibody in the blocking buffer overnight at 4° C. Finally, the cells were reacted with secondary antibodies conjugated with FITC or rhodamine at 4° C. for 7 hours. The nuclei were stained with DAPI at room temperature for 10 minutes. After the cells were washed 3 times with PBS, the cover glass was mounted with a mounting solution (H-5501, Vector Laboratories, Cambridgeshire, UK) and immunofluorescence signals were detected using a fluorescence microscopy (Zeiss, Jena, Germany)."}, "TGF-β signaling [5]": {"system": "TGF-β signaling", "assay": "3TP-luciferase assay in HEI-193 cells", "details": "high concentrations, TGF-β1 2 ng/ml (FIG. 8D)", "procedure": "To estimate the transcriptional activity of TGF-β signaling, 3TP-Luc vectors were transfected into cells for 24 hours, and the cells were treated with the indicated chemicals. After washing with wash buffer (Promega, Wisconsin, USA), the cells were lysed using lysis buffer (Promega, Wisconsin, USA). Luciferase activity was measured using a luminometer (MicroDigital, Gyeonggi-do, Korea)."}, "HEI-193 cells [6]": {"system": "HEI-193 cells", "assay": "FACS analysis and IF staining of schwann cell markers in HEI-193 cells", "details": "7 days, compared with TEW7197 (FIG. 12F)", "procedure": "as §2, with “Germany). In addition, for flow cytometry, cells were seeded in a 6-well plate and reacted with DMSO (control group), PRG-N-01 (5 μM), or TEW7197 (5 μM), respectively. After 4 days, the cells were fixed with 70% ethanol and labeled with propidium iodine. These samples were analyzed by FACS for cell-cycle analysis. […] A minimum of 10,000 cells were analyzed using an Attune NxT Flow cytometer (Thermo Fisher Scientific, Inc., Rockford, IL, USA).” for “Germany).”"}}, "data": [{"smiles": "CCN(CC)CCOc1ccc(-c2nnn(Cc3ccc(OC)cc3)c2N)cc1", "note": "[PRG-N-01, 4-(4-(2-(diethylamino)ethoxy)phenyl)-1-(4-methoxybenzyl)-1H-1,2,3-triazol-5-amino]", "values": [{"measurement": "expression of other stem cell factors (c-Myc, Nanog, Oct4)", "setting": "HEI-193 cells [1]; 4 days, Western blot (FIG. 14A)", "value": "not altered"}, {"measurement": "expression of SOX2 (stem cell marker) at the protein level", "setting": "HEI-193 cells [1]; Western blot (FIG. 12E)", "value": "reduced"}, {"measurement": "expression of cell cycle-related genes (CDK1, CDK4, CCNB1, PLK4)", "setting": "HEI-193 cells [2]; RT-PCR (FIG. 12D)", "value": "decreased"}, {"measurement": "expression of schwann cell markers (PLP, MBP, GFAP MPZ, PMP22, SOX10)", "setting": "HEI-193 cells [2]; RT-PCR (FIGS. 12D, 13C)", "value": "increased"}, {"measurement": "duration of Smad 2/3 phosphorylation (canonical TGF-β signaling)", "setting": "TGF-β signaling [3]", "value": "prolonged"}, {"measurement": "cell cycle", "setting": "HEI-193 cells [4]", "value": "cell cycle arrest was induced at the G1 phase"}, {"measurement": "localization of nuclear SOX2", "setting": "SOX2", "value": "moved to the cytosol"}, {"measurement": "TGF-β signaling (3TP-luciferase activity)", "setting": "TGF-β signaling [5]", "value": "did not inhibit TGF-β signaling even at high concentrations"}, {"measurement": "schwann cell markers (FACS analysis)", "setting": "HEI-193 cells [6]", "value": "clearly increased schwann cell markers compared to TEW7197"}]}]}
